From patent publication EP3394284B1, “ENZYMATIC METHOD FOR THE EVALUATION OF XYLOSE” (Venter Pharma, S.L, priority 2015, dated 2017)

Tests used:
[1] = biological target: T1, XylB-wt2 (Caulobacter vibrioides, UniProt B8H1Z0); experiment: Substrate specificity: XylB-wt2 activity with mono- and disaccharides (NADH formation at 340 nm); assay type: biochemical, C. crescentus NA1000
T1 construct: made in house; host or cells: E. coli BL21(DE3)
T1 sequence (B8H1Z0 1-248): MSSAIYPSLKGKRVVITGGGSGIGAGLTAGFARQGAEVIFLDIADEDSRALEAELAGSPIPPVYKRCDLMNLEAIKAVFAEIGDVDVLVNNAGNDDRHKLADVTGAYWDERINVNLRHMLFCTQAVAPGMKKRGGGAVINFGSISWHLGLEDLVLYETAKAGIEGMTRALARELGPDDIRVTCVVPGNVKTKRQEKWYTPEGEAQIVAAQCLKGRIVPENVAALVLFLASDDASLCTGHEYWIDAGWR
Description: Xylose dehydrogenase activity in each CFE was evaluated. XylB catalyzes the oxidation of D-xylose with concomitant reduction of its cofactor NAD^+, to yield NADH. Activity can be determined by measuring the formation of NADH by spectrophotometric monitoring. Variations of absorbance at 340 nm are proportional to consumed D-xylose concentration in the reaction (ε^NADH = 6220 cm^-1M^-1). Activity assays were performed at RT and pH 8.0 (Figure 5). Absorbance at 340 nm (OD) was spectrophotometrically recorded along the time in the presence of each CFE sample containing expressed XylB: wt1, wt2, 6His1 and 6His2. […] Volumes of CFE samples used in the assays are shown in brackets, as well as when the sample has been diluted 10 times (dil 1/10). Slopes are proportional to enzyme activity.
The enzyme XylB-wt2 was characterized to determine if it is possible its application in sensitive and reliable D-xylose detection and quantification. […] In order to confirm the substrate specificity, 9 different sugars (7 monosaccharides and 2 disaccharides) were assayed as XylB-wt substrates. […] XylB-wt2 specific activity measured with different mono and disaccharides.

[2] = biological target: T1, XylB-wt2; experiment: Steady-state kinetic assays of purified XylB-wt2 for substrates and cofactor; assay type: biochemical, C. crescentus NA1000; conditions: for activity as cofactor of XylB-wt2: NAD^+ and NADP^+ both assayed, 'the first one' = NAD^+ (NADP^+ gave no activity)
Description: (§1) Steady-state kinetic assays for XylB activity were measured in triplicate at 25°C in 96-well plates (total volume of 0.3 mL). Measurements of kinetic parameters for D-xylose were performed with purified XylB-wt2 at eight different D-xylose concentrations and with saturating concentration of NAD^+ (0.5 mM). […] Xylose dehydrogenase activity of purified XylB-wt2 was measured at RT and pH 8.0.
(§2) Kinetic parameters of XylB-wt2 for the cofactor NAD^+ were also calculated.
(§3) The calculated homohexameric quaternary structure should be considered when kinetic parameters are calculated.

[3] = biological target: T2, 6His-tagged XylB (Caulobacter vibrioides, UniProt B8H1Z0); conditions: data taken from Stephens C, 2007; cited from earlier work
T2 construct: 6His
T2 sequence (B8H1Z0 1-248): T1 sequence (B8H1Z0 1-248)

[4] = biological target: T3, Strep-TEV-XylB (Caulobacter vibrioides, UniProt B8H1Z0); conditions: data taken from Toivari M, 2012a; pH 9.0; cited from earlier work
T3 construct: Strep tag; TEV cleavage site
T3 sequence (B8H1Z0 1-248): T1 sequence (B8H1Z0 1-248)

[5] = substrate: NC(=O)c1ccc[n+]([C@@H]2O[C@H](COP(=O)([O-])OP(=O)(O)OC[C@H]3O[C@@H](n4cnc5c(N)ncnc54)[C@H](O)[C@@H]3O)[C@@H](O)[C@H]2O)c1; experiment: Steady-state kinetic assays of purified XylB-wt2 for substrates and cofactor; assay type: biochemical, C. crescentus NA1000; conditions: other: 25°C, pH 8.0, sugars with NAD^+ 0.5 mM, NAD^+ with D-xylose 5 mM
Description: as §1, §2, §3

[6] = sugar concentration 100 mM, relative to D-xylose at 5 mM
[7] = considering the enzyme as a homohexameric protein
[8] = 25°C, pH 8.0, sugars with NAD^+ 0.5 mM, NAD^+ with D-xylose 5 mM, enzyme assumed monomer
[9] = sugar concentration 5 mM, relative to D-xylose

**Q.** Which “Specific Activity (U/mg)” value ([1]; sugar concentration 100 mM) does the source give for “4-O-β-galactopyranosyl-D-xylose [Gaxilose]” here?
**A.** 0.7 U/mg

**Q.** What about the “Relative Activity (%)” value [1, 6] of the same molecule?
**A.** 2%

**Q.** For OC[C@H]1O[C@H](O[C@H]2[C@H](O)[C@@H](O)C(O)O[C@@H]2CO)[C@H](O)[C@@H](O)[C@@H]1O (mixture of isomers) [Maltose], which “Specific Activity (U/mg)” value ([1]; sugar concentration 100 mM) is on record?
**A.** 0.0 U/mg

**Q.** And the “Relative Activity (%)” value [1, 6]?
**A.** 0%

**Q.** With O=C(CO)[C@@H](O)[C@H](O)[C@H](O)CO [D-Fructose] as the molecule, how does the “Specific Activity (U/mg)” value ([1]; sugar concentration 100 mM) read?
**A.** 0.0 U/mg

**Q.** What about the “Relative Activity (%)” value [1, 6] of the same molecule?
**A.** 0%

**Q.** For NC(=O)c1ccc[n+]([C@@H]2O[C@H](COP(=O)([O-])OP(=O)(O)OC[C@H]3O[C@@H](n4cnc5c(N)ncnc54)[C@H](OP(=O)(O)O)[C@@H]3O)[C@@H](O)[C@H]2O)c1 [NADP^+], which “activity as cofactor of XylB-wt2” value [2] is on record?
**A.** only displayed activity with the first one

**Q.** Which “activity as cofactor of XylB-wt2” value [2] does the source give for NC(=O)c1ccc[n+]([C@@H]2O[C@H](COP(=O)([O-])OP(=O)(O)OC[C@H]3O[C@@H](n4cnc5c(N)ncnc54)[C@H](O)[C@@H]3O)[C@@H](O)[C@H]2O)c1 [NAD^+] here?
**A.** only displayed activity with the first one

**Q.** What about the “Vmax (U·mg^-1)” value [2, 7] of the same molecule?
**A.** 30.1 ±1.0 U·mg^-1

**Q.** And the “Vmax (U·mg^-1)” value [3]?
**A.** 20.5 U·mg^-1

**Q.** And the Km [4]?
**A.** 460 ± 50 µM

**Q.** What about the “kcat” value [4] of the same molecule?
**A.** 31 ± 1.08 s⁻¹

**Q.** With D-Galactose as the molecule, how does the “Specific Activity (U/mg)” value ([1]; sugar concentration 100 mM) read?
**A.** 0.5 U/mg

**Q.** And the “Relative Activity (%)” value [1, 6]?
**A.** 2%

**Q.** With D-Glucose as the molecule, how does the “Vmax (U·mg^-1)” value [2, 8] read?
**A.** 10.7 ±0.1 U·mg^-1

**Q.** What about the “kcat” value [2, 8] of the same molecule?
**A.** 4.78 ± 0.833 s⁻¹

**Q.** What about the “Vmax (U·mg^-1)” value [2, 7] of the same molecule?
**A.** 10.7 ±0.1 U·mg^-1

**Q.** What about the “Specific Activity (U/mg)” value ([1]; sugar concentration 100 mM) of the same molecule?
**A.** 3.9 U/mg

**Q.** What about the “Relative Activity (%)” value [1, 6] of the same molecule?
**A.** 13%

**Q.** With D-Mannose as the molecule, how does the “Specific Activity (U/mg)” value ([1]; sugar concentration 100 mM) read?
**A.** 0.0 U/mg

**Q.** And the “Relative Activity (%)” value [1, 6]?
**A.** 0%

**Q.** With D-Ribose as the molecule, how does the “Specific Activity (U/mg)” value ([1]; sugar concentration 100 mM) read?
**A.** 4.4 U/mg

**Q.** And the “Relative Activity (%)” value [1, 6]?
**A.** 15%

**Q.** With D-Xylose as the molecule, how does the Km ([2]; 25°C, pH 8.0, sugars with NAD^+ 0.5 mM, NAD^+ with D-xylose 5 mM) read?
**A.** 41 ± 5 µM

**Q.** And the “Vmax (U·mg^-1)” value [2, 8]?
**A.** 30.2 ±1.0 U·mg^-1

**Q.** And the “kcat” value [2, 8]?
**A.** 13.5 ± 0.583 s⁻¹

**Q.** And the “catalytic efficiencies (kcat/KM) ratio D-xylose/ D-glucose” value ([2]; XylB-wt2, pH 8.0)?
**A.** 15000

**Q.** What about the Km [2, 7] of the same molecule?
**A.** 41 ± 5 µM

**Q.** And the “Vmax (U·mg^-1)” value [2, 7]?
**A.** 30.2 ±1.0 U·mg^-1

**Q.** And the Km [3]?
**A.** 760 µM

**Q.** What about the “Vmax (U·mg^-1)” value [3] of the same molecule?
**A.** 27.5 U·mg^-1

**Q.** And the “Specific Activity (U/mg)” value ([1]; sugar concentration 5 mM)?
**A.** 30.0 U/mg

**Q.** And the “Relative Activity (%)” value [1, 9]?
**A.** 100%

**Q.** And the Km [4]?
**A.** 80 ± 20 µM

**Q.** And the “kcat” value [4]?
**A.** 22.67 ± 1.08 s⁻¹

**Q.** With L-Arabinose as the molecule, how does the “Specific Activity (U/mg)” value ([1]; sugar concentration 5 mM) read?
**A.** 4.8 U/mg

**Q.** And the “Relative Activity (%)” value [1, 9]?
**A.** 16%

B1: XylB-wt2 (Caulobacter vibrioides NA1000) (protein)
chain: T1 sequence (B8H1Z0 1-248)
notes: made in house; host or cells: E. coli BL21(DE3)
**Q.** For B1, which Km [5] is on record?
**A.** 78 ± 10 µM

**Q.** What about the Vmax [5] of the same molecule?
**A.** 30.1 ±1.0 U·mg^-1

**Q.** What about the kcat [5] of the same molecule?
**A.** 13.5 ± 1.08 s⁻¹

**Q.** And the kcat/Km [5]?
**A.** 173080 M⁻¹ s⁻¹
